Data: patent US20080311138A1 (priority 2004, published 2008)
No end group written: not given here.

What was measured:
TT = system: TT; set-up: species or system mice (C57/BL6); settings: mouse, in vivo
tetanus toxoid (TT) = system: tetanus toxoid (TT); set-up: species or system mice (C57/BL6); settings: mouse, in vivo
[1] = circulating GLP-1; inactivated by N-terminal cleavage by DPP-IV; cited from earlier work
tetanus toxin = system: tetanus toxin; set-up: species or system mice (C57/BL6); settings: mouse, in vivo
VIP = settings: in man; cited from earlier work

Row | Substance | range of anti-TT IgG titer (TT) | anti-TT serum IgA response (GMT) (tetanus toxoid (TT)) | half life [1] | paralysis after tetanus toxin challenge (tetanus toxin) | survivors after tetanus toxin challenge (tetanus toxin) | VIP agonist activity (VIP)
1 | GLP-1 (HDRHAGTTSDVSSYGAAKAWVKGRG; listed as Homo sapiens) | 16,384-131,072 | 959 | several minutes | no sign of paralysis | 8/8 | 
2 | VIP 2-28: Gastrointestinal peptide, residues 2-28 of Vasoactive Intestinal Peptide (SDAVFTDNYTRLRKQMAVKKYLNSILN; ends and bridges not checked; UniProt P01282 126-152, looked up, fragment) |  |  |  |  |  | full VIP agonist
